Literature values, collected in patent US6232438A, “Angiotensin converting enzyme inhibitors” (Nong Shim Co., Ltd., priority 1996, dated 2001).

Target: ACE (Homo sapiens, UniProt P12821)
Conditions: peptide from enzymatic hydrolysate of milk casein

Sequence of ACE (P12821 30-1306, species assumed): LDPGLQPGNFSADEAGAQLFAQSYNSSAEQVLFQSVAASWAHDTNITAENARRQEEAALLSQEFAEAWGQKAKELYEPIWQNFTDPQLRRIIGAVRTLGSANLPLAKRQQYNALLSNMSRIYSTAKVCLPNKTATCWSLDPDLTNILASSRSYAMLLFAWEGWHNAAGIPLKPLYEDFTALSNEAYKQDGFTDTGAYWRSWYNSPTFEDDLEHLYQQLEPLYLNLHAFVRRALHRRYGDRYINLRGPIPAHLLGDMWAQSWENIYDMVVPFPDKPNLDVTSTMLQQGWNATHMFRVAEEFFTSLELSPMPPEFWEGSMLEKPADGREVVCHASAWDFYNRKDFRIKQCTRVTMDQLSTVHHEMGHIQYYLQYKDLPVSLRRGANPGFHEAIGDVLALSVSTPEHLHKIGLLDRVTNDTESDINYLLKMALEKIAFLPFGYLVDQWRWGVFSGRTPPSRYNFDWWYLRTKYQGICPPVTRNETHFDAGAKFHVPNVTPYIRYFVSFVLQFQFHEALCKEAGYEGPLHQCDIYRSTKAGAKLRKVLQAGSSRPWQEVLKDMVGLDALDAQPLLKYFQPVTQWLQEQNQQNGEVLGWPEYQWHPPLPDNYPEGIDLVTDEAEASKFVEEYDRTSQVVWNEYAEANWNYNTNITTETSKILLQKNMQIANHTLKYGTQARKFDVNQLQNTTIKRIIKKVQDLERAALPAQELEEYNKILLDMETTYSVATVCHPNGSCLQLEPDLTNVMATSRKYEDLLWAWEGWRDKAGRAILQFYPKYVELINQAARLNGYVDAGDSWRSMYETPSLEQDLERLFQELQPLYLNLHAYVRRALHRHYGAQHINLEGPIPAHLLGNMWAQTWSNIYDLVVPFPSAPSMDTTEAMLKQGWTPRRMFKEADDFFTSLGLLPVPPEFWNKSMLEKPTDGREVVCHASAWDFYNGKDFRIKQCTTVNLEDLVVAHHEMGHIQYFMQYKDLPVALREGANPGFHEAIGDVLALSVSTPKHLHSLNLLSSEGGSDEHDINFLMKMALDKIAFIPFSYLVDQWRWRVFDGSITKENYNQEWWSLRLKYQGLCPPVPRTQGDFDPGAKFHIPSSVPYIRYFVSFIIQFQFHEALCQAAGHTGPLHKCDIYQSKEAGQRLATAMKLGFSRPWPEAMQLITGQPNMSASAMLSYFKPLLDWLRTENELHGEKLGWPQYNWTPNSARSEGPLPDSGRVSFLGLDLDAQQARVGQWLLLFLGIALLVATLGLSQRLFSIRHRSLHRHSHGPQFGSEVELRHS

IC50: 6 µM
Substance: phenylalanine-phenylalanine-valine-alanine-proline
